Where “and” joins values, the source holds several entries; their conditions need not be identical. Equal values may be shown once.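 Growth conditions: 96-well plates. Treatment: test compound, 48 hours, 5 concentrations. Analysis: linear interpolation between bracketing concentrations; unreached endpoints set to highest concentration. GI50 is the concentration that inhibits growth by half. Definition used: TGI = concentration required for complete inhibition of growth.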
Tests used:
Experiment in all cases: NCI tumour cell line growth inhibition, 48 h
A498 renal = system: A498 renal
CAKI-1 renal = system: CAKI-1 renal
CCRF-CEM leukemia = system: CCRF-CEM leukemia
MOLT-4 leukemia = system: MOLT-4 leukemia
NCI-H226 lung = system: NCI-H226 lung
RPMI-8226 leukemia = system: RPMI-8226 leukemia
SF-268 CNS = system: SF-268 CNS
SK-OV-3 ovarian = system: SK-OV-3 ovarian
786-0 renal = system: 786-0 renal
A549 NSCLC = system: A549 NSCLC
ACHN renal = system: ACHN renal
COLO 205 colon = system: COLO 205 colon
DU-145 prostate = system: DU-145 prostate
EKVX NSCLC = system: EKVX NSCLC
HCC-2998 colon = system: HCC-2998 colon
HCT-116 colon = system: HCT-116 colon
HCT-15 colon = system: HCT-15 colon
HL-60(TB) leukemia = system: HL-60(TB) leukemia
HOP-62 NSCLC = system: HOP-62 NSCLC
HOP-92 NSCLC = system: HOP-92 NSCLC
HS 578T breast = system: HS 578T breast
HT29 colon = system: HT29 colon
IGROV1 ovarian = system: IGROV1 ovarian
K-562 leukemia = system: K-562 leukemia
LOX IMVI melanoma = system: LOX IMVI melanoma
M14 melanoma = system: M14 melanoma
MALME-3M melanoma = system: MALME-3M melanoma
MDA-MB-231 breast = system: MDA-MB-231 breast
MDA-MB-435 = system: MDA-MB-435
NCI-H23 lung = system: NCI-H23 lung
NCI-H460 lung = system: NCI-H460 lung
NCI-H522 lung = system: NCI-H522 lung
NCI/ADR-RES ovarian = system: NCI/ADR-RES ovarian
OVCAR-3 ovarian = system: OVCAR-3 ovarian
OVCAR-4 ovarian = system: OVCAR-4 ovarian
OVCAR-5 ovarian = system: OVCAR-5 ovarian
PC-3 prostate = system: PC-3 prostate
RXF 393 renal = system: RXF 393 renal
SF-295 CNS = system: SF-295 CNS
SF-539 CNS = system: SF-539 CNS
SK-MEL-2 melanoma = system: SK-MEL-2 melanoma
SK-MEL-28 melanoma = system: SK-MEL-28 melanoma
SK-MEL-5 melanoma = system: SK-MEL-5 melanoma
SN12C renal = system: SN12C renal
SNB-19 CNS = system: SNB-19 CNS
SR leukemia = system: SR leukemia
SW-620 colon = system: SW-620 colon
T-47D breast = system: T-47D breast
TK-10 renal = system: TK-10 renal
U251 CNS = system: U251 CNS
UACC-257 melanoma = system: UACC-257 melanoma
UACC-62 melanoma = system: UACC-62 melanoma
UO-31 renal = system: UO-31 renal

Compound `CC1(C)CC[C@]2(CO)CC[C@]3(C)C(=CC[C@@H]4[C@@]5(C)CC[C@H](NCO)C(C)(C)[C@@H]5CC[C@]43C)[C@@H]2C1` has a GI50 (A498 renal) of 1.38 µM, a TGI (A498 renal) of 2.83 µM and a GI50 (CAKI-1 renal) of 1.85 µM. The TGI (CAKI-1 renal) was 3.52 µM, the GI50 (CCRF-CEM leukemia) was 2.04 µM and the TGI (CCRF-CEM leukemia) was 5.94 µM. For the same compound, the GI50 (MOLT-4 leukemia) was 1.91 µM, the TGI (MOLT-4 leukemia) was 5.1 µM and the GI50 (NCI-H226 lung) was 2.26 µM. For the same compound, the TGI (NCI-H226 lung) was 5.73 µM, the GI50 (RPMI-8226 leukemia) was 1.75 µM and the TGI (RPMI-8226 leukemia) was 4.57 µM. The GI50 (SF-268 CNS) was 2.39 µM, the TGI (SF-268 CNS) was 6.22 µM and the GI50 (SK-OV-3 ovarian) was 3.29 µM. For the same compound, the TGI (SK-OV-3 ovarian) was 9.06 µM.

`N#CC1(C#N)C2C=CC(C3CC=CC32)C1(C#N)C#N` (stereo not drawn) was tested, and the GI50 (786-0 renal) was 2.19 µM, the TGI (786-0 renal) was 3.36 µM and 7.76 µM and the TGI (A498 renal) was 16.9 µM. For the same compound, the TGI (A549 NSCLC) was 21 µM, the GI50 (ACHN renal) was 8.44 µM and the TGI (ACHN renal) was 7.09 µM and 15.3 µM. The GI50 (CAKI-1 renal) was 8.5 µM, the TGI (CAKI-1 renal) was 3.72 µM and 18.5 µM and the TGI (CCRF-CEM leukemia) was 3.43 µM. For the same compound, the GI50 (COLO 205 colon) was 5.5 µM, the TGI (COLO 205 colon) was 4.3 µM and 13.5 µM and the TGI (DU-145 prostate) was 16.7 µM. For the same compound, the TGI (EKVX NSCLC) was 24 µM, the TGI (HCC-2998 colon) was over 50 µM and the GI50 (HCT-116 colon) was 7.85 µM. For the same compound, the TGI (HCT-116 colon) was 3.4 µM and 15.7 µM, the GI50 (HCT-15 colon) was 13.2 µM and the TGI (HCT-15 colon) was 4.17 µM and 35.9 µM. The TGI (HL-60(TB) leukemia) was 2.87 µM, the TGI (HOP-62 NSCLC) was 33.3 µM and the TGI (HOP-92 NSCLC) was 14.8 µM. For the same compound, the TGI (HS 578T breast) was over 50 µM, the TGI (HT29 colon) was 21.9 µM and the TGI (IGROV1 ovarian) was 16.5 µM. For the same compound, the GI50 (K-562 leukemia) was 1.01 µM, the TGI (K-562 leukemia) was 5.83 µM and 3.38 µM and the TGI (LOX IMVI melanoma) was 18.6 µM. For the same compound, the GI50 (M14 melanoma) was 8.72 µM, the TGI (M14 melanoma) was 3.74 µM and 16 µM and the GI50 (MALME-3M melanoma) was 6.13 µM. The TGI (MALME-3M melanoma) was 6.16 µM and 13.1 µM, the TGI (MDA-MB-231 breast) was 17.2 µM and the GI50 (MDA-MB-435) was 9.78 µM. The TGI (MDA-MB-435) was 18.8 µM, the GI50 (MOLT-4 leukemia) was 1.2 µM and the TGI (MOLT-4 leukemia) was 3.5 µM and 3.55 µM. It also gave a TGI (NCI-H226 lung) of over 50 µM, a TGI (NCI-H23 lung) of 19.8 µM and a TGI (NCI-H460 lung) of over 50 µM. It also gave a TGI (NCI-H522 lung) of 3.18 µM, a TGI (NCI/ADR-RES ovarian) of 33.4 µM and a GI50 (OVCAR-3 ovarian) of 6.81 µM. For the same compound, the TGI (OVCAR-3 ovarian) was 5.1 µM and 14.5 µM, the GI50 (OVCAR-4 ovarian) was 9.34 µM and the TGI (OVCAR-4 ovarian) was 9.16 µM and 18.7 µM. It also gave a TGI (OVCAR-5 ovarian) of 16.8 µM, a TGI (PC-3 prostate) of 16.2 µM and a GI50 (RPMI-8226 leukemia) of 8.86 µM. The TGI (RPMI-8226 leukemia) was 4.89 µM and 21.1 µM, the TGI (RXF 393 renal) was 8.29 µM and 13.4 µM and the TGI (SF-268 CNS) was 22.6 µM. The TGI (SF-295 CNS) was over 50 µM, the TGI (SF-539 CNS) was 17.2 µM and the TGI (SK-MEL-2 melanoma) was 32.1 µM. It also gave a TGI (SK-MEL-28 melanoma) of 21.6 µM, a GI50 (SK-MEL-5 melanoma) of 8.61 µM and a TGI (SK-MEL-5 melanoma) of 15.6 µM. For the same compound, the TGI (SK-OV-3 ovarian) was over 50 µM, the TGI (SN12C renal) was 18.4 µM and the TGI (SNB-19 CNS) was over 50 µM. The GI50 (SR leukemia) was 7.6 µM, the TGI (SR leukemia) was 7.12 µM and 17.6 µM and the GI50 (SW-620 colon) was 2.64 µM. For the same compound, the TGI (SW-620 colon) was 5.03 µM and 22.6 µM, the GI50 (T-47D breast) was 2.78 µM and the TGI (T-47D breast) was 8.65 µM and 13.2 µM. For the same compound, the TGI (TK-10 renal) was 3.61 µM, the TGI (U251 CNS) was 17.6 µM and the TGI (UACC-257 melanoma) was 21 µM. For the same compound, the TGI (UACC-62 melanoma) was 16.9 µM, the GI50 (UO-31 renal) was 1.07 µM and the TGI (UO-31 renal) was 3.67 µM and 1.85 µM.
